Residues, ends and D or L forms follow the SMILES beside them.
Key:
[1] = test system: Enterobacter cloacae; assay: Inhibition zone assay (agar plate); format: cell-based; conditions: agar plate, 50 nanomoles/well, 3 mm wells
[2] = test system: Klebsiella pneumoniae; assay: Inhibition zone assay (agar plate); format: cell-based; conditions: agar plate, 50 nanomoles/well, 3 mm wells
[3] = test system: E. coli 23802; assay: Minimal inhibitory concentration (liquid culture); conditions: inoculum 5000 CFU/ml; a-b = highest concentration with growth - lowest without growth
[4] = test system: Escherichia coli (K514); format: cell-based; conditions: agar plate, 50 nanomoles/well, 3 mm wells
[5] = test system: A. calcoaceticus; assay: Minimal inhibitory concentration (liquid culture); conditions: inoculum 16 × 10^6 CFU/ml; a-b = highest concentration with growth - lowest without growth
[6] = test system: Salmonella typhimurium; assay: Inhibition zone assay (agar plate); format: cell-based; conditions: agar plate, 50 nanomoles/well, 3 mm wells
[7] = test system: Rhizobium meliloti; assay: Inhibition zone assay (agar plate); format: cell-based; conditions: 50 nanomoles/well, 3 mm wells
[8] = test system: Y. enterocolitica; assay: Minimal inhibitory concentration (liquid culture); conditions: inoculum 5000 CFU/ml; a-b = highest concentration with growth - lowest without growth
[9] = test system: S. typhimurium; assay: Minimal inhibitory concentration (liquid culture); conditions: inoculum 8 × 10^6 CFU/ml; a-b = highest concentration with growth - lowest without growth
[10] = test system: Pseudomonas syringae; assay: Inhibition zone assay (agar plate); format: cell-based; conditions: agar plate, 50 nanomoles/well, 3 mm wells
[11] = test system: E. coli Apid^R; assay: Minimal inhibitory concentration (liquid culture); format: cell-based; conditions: a-b = highest concentration with growth - lowest without growth
From the text: For details see `Experimental Procedures`.

[12] = test system: Erwinia amylovora; assay: Inhibition zone assay (agar plate); format: cell-based; conditions: agar plate, 50 nanomoles/well, 3 mm wells
[13] = test system: Haemophilus influenzae; assay: Inhibition zone assay (agar plate); format: cell-based; conditions: 50 nanomoles/well, 3 mm wells
[14] = test system: Francisella tularensis; format: cell-based; conditions: agar plate, 50 nanomoles/well, 3 mm wells
[15] = test system: E. coli 11775; assay: Minimal inhibitory concentration (liquid culture); conditions: a-b = highest concentration with growth - lowest without growth
[16] = test system: M. morganii; assay: Minimal inhibitory concentration (liquid culture); conditions: inoculum 400 CFU/ml; a-b = highest concentration with growth - lowest without growth
[17] = test system: E. coli 25922; assay: Minimal inhibitory concentration (liquid culture); conditions: inoculum 1100 CFU/ml; a-b = highest concentration with growth - lowest without growth
[18] = test system: Agrobacterium tumefaciens; assay: Inhibition zone assay (agar plate); format: cell-based; conditions: agar plate, 50 nanomoles/well, 3 mm wells
[19] = test system: Yersinia enterocolitica; assay: Inhibition zone assay (agar plate); format: cell-based; conditions: 50 nanomoles/well, 3 mm wells
[20] = test system: Escherichia coli (ATCC11775); assay: Inhibition zone assay (agar plate); format: cell-based; conditions: agar plate, 50 nanomoles/well, 3 mm wells
[21] = test system: Salmonella typhi; format: cell-based; conditions: agar plate, 50 nanomoles/well, 3 mm wells
[22] = test system: Acinetobacter calcoaceticus; assay: Inhibition zone assay (agar plate); format: cell-based; conditions: agar plate, 50 nanomoles/well, 3 mm wells

SMILES	inhibition zone diameter (number of plus signs) [1]	inhibition zone diameter (number of plus signs) [2]	minimal inhibitory concentration (MIC) [3]	inhibition zone diameter (number of plus signs) [4]	minimal inhibitory concentration (MIC) [5]	inhibition zone diameter (number of plus signs) [6]	minimal inhibitory concentration (MIC) [8]	minimal inhibitory concentration (MIC) [9]	inhibition zone diameter (number of plus signs) [10]	minimal inhibitory concentration (MIC) ([11]; inoculum 12 × 10^6 CFU/ml)	minimal inhibitory concentration (MIC) ([11]; inoculum 1000 CFU/ml)	inhibition zone diameter (number of plus signs) [12]	inhibition zone diameter (number of plus signs) [13]	inhibition zone diameter (number of plus signs) [14]	minimal inhibitory concentration (MIC) ([15]; inoculum 16 × 10^6 CFU/ml)	minimal inhibitory concentration (MIC) ([15]; inoculum 1200 CFU/ml)	minimal inhibitory concentration (MIC) [16]	minimal inhibitory concentration (MIC) [17]	inhibition zone diameter (number of plus signs) [20]	further results
CC(C)C[C@H](NC(=O)[C@H](CCCNC(=N)N)NC(=O)[C@@H]1CCCN1C(=O)[C@H](Cc1c[nH]cn1)NC(=O)[C@@H]1CCCN1C(=O)[C@@H]1CCCN1C(=O)[C@H](CCCNC(=N)N)NC(=O)[C@@H]1CCCN1C(=O)[C@H](C)NC(=O)[C@@H]1CCCN1C(=O)[C@@H](NC(=O)[C@H](Cc1ccc(O)cc1)NC(=O)[C@@H](NC(=O)[C@@H]1CCCN1C(=O)[C@H](CCCNC(=N)N)NC(=O)[C@@H](N)CC(N)=O)[C@@H](C)O)C(C)C)C(=O)O [Ck A, Asn--Arg--Pro--Thr--Tyr--Val--Pro--Ala--Pro--Arg--Pro--Pro--His--Pro--Arg--Leu] (H-NRPTYVPAPRPPHPRL-OH)	++ ((++) 7-9 mm)	++ ((++) 7-9 mm)	> 40 µg/mL	++ ((++) 7-9 mm)	> 20 µg/mL	+++ ((+++) 10-14 mm)	1 to 5 µg/mL	1 to 5 µg/mL	+++ ((+++) 10-14 mm)	> 40 µg/mL	> 40 µg/mL	+++ ((+++) 10-14 mm)	++ ((++) 7-9 mm)	+ ((+) 5-6 mm)	1 to 5 µg/mL	0.1 to 0.5 µg/mL	20 to 40 µg/mL	1 to 5 µg/mL	+++ ((+++) 10-14 mm)	inhibition zone diameter (number of plus signs) [7]: ++++ ((++++) 15-19 mm); inhibition zone diameter (number of plus signs) [18]: ++++ ((++++) 15-19 mm); inhibition zone diameter (number of plus signs) [19]: +++ ((+++) 10-14 mm)
CC(C)C[C@H](NC(=O)[C@H](CCCNC(=N)N)NC(=O)[C@@H]1CCCN1C(=O)[C@H](Cc1c[nH]cn1)NC(=O)[C@@H]1CCCN1C(=O)[C@@H]1CCCN1C(=O)[C@H](CCCNC(=N)N)NC(=O)[C@@H]1CCCN1C(=O)[C@@H]1CCCN1C(=O)[C@@H](NC(=O)[C@H](CCC(N)=O)NC(=O)[C@H](CCC(N)=O)NC(=O)[C@@H]1CCCN1C(=O)[C@H](CCCNC(=N)N)NC(=O)[C@@H]1CCCN1C(=O)[C@H](CCCCN)NC(=O)[C@H](CC(N)=O)NC(=O)[C@@H](N)CO)C(C)C)C(=O)O [Yj +S, Ser--Asn--Lys--Pro--Arg--Pro--Gln--Gln--Val--Pro--Pro--Arg--Pro--Pro--His--Pro--Arg--Leu] (H-SNKPRPQQVPPRPPHPRL-OH)	++ ((++) 7-9 mm)	++ ((++) 7-9 mm)	0.5 to 1 µg/mL	++ ((++) 7-9 mm)	2 to 10 µg/mL	+++ ((+++) 10-14 mm)	1 to 5 µg/mL	0.1 to 0.5 µg/mL	++++ ((++++) 15-19 mm)	10 to 20 µg/mL	1 to 5 µg/mL	+++ ((+++) 10-14 mm)	+++ ((+++) 10-14 mm)	++ ((++) 7-9 mm)	0.1 to 0.5 µg/mL	0.1 to 0.5 µg/mL	0.5 to 1 µg/mL	0.1 to 0.5 µg/mL	+++ ((+++) 10-14 mm)	inhibition zone diameter (number of plus signs) [21]: ++ ((++) 7-9 mm); inhibition zone diameter (number of plus signs) [22]: + ((+) 5-6 mm)
